Experimental data as given in ChEMBL document CHEMBL1201862, “PubChem BioAssay data set” (2004).
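Following 48 hours of exposure in 96-well plates, responses at five concentrations were used to interpolate endpoints linearly. Here, GI50 denotes the concentration required for 50% inhibition of growth.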 Active and inactive are the calls of the source. Cut-off read from the data, not from the text of the source: active = GI50 up to about 1.1 µM and inactive = higher.

Assays:
Assay in all cases: growth of human tumour cells (NCI), 48 h
786-0 = tested on: 786-0
A498 = tested on: A498
A549 = tested on: A549
ACHN = tested on: ACHN
CAKI-1 = tested on: CAKI-1
CCRF-CEM = tested on: CCRF-CEM
COLO 205 = tested on: COLO 205
DLD-1 = tested on: DLD-1
DMS-273 = tested on: DMS-273
EKVX = tested on: EKVX
HCC 2998 = tested on: HCC 2998
HCT-116 = tested on: HCT-116
HCT-15 = tested on: HCT-15
HL-60 = tested on: HL-60
HOP-18 = tested on: HOP-18
HOP-62 = tested on: HOP-62
HOP-92 = tested on: HOP-92
HT-29 = tested on: HT-29
IGROV-1 = tested on: IGROV-1
K562 = tested on: K562
KM-20L2 = tested on: KM-20L2
KM12 = tested on: KM12
LOX IMVI = tested on: LOX IMVI
LXFL 529 = tested on: LXFL 529
M14 = tested on: M14
MOLT-4 = tested on: MOLT-4
Malme-3M = tested on: Malme-3M
NCI-H226 = tested on: NCI-H226
NCI-H23 = tested on: NCI-H23
NCI-H460 = tested on: NCI-H460
NCI-H522 = tested on: NCI-H522
OVCAR-3 = tested on: OVCAR-3
OVCAR-4 = tested on: OVCAR-4
OVCAR-5 = tested on: OVCAR-5
OVCAR-8 = tested on: OVCAR-8
RPMI-8226 = tested on: RPMI-8226
RXF 393 = tested on: RXF 393
SF-268 = tested on: SF-268
SF-295 = tested on: SF-295
SF-539 = tested on: SF-539
SK-MEL-28 = tested on: SK-MEL-28
SK-MEL-2 = tested on: SK-MEL-2
SK-MEL-5 = tested on: SK-MEL-5
SK-OV-3 = tested on: SK-OV-3
SN12C = tested on: SN12C
SNB-19 = tested on: SNB-19
SNB-75 = tested on: SNB-75
SNB-78 = tested on: SNB-78
SR = tested on: SR
SW-620 = tested on: SW-620
TK-10 = tested on: TK-10
U-251 = tested on: U-251
UACC-257 = tested on: UACC-257
UACC-62 = tested on: UACC-62
UO-31 = tested on: UO-31
XF498 = tested on: XF498

`CN(C)CCNC(=O)c1cccc2cc3ccc4ccccc4c3nc12` was tested, and the GI50 (786-0) was 82.4 nM (active), the GI50 (A498) was < 10 nM (active) and the GI50 (A549) was 22.6 nM (active). For the same compound, the GI50 (ACHN) was 27.6 nM (active), the GI50 (CAKI-1) was 41.3 nM (active) and the GI50 (CCRF-CEM) was 40.6 nM (active). For the same compound, the GI50 (COLO 205) was 41.4 nM (active), the GI50 (DLD-1) was 56.1 nM (active) and the GI50 (DMS-273) was 22.4 nM (active). The GI50 (EKVX) was 145 nM (active), the GI50 (HCC 2998) was 104 nM (active) and the GI50 (HCT-116) was 29.4 nM (active). The GI50 (HCT-15) was 68.4 nM, the GI50 (HL-60) was 33.6 nM (active) and the GI50 (HOP-18) was 205 nM (active). The GI50 (HOP-62) was 95.7 nM (active), the GI50 (HOP-92) was 143 nM (active) and the GI50 (HT-29) was 51.6 nM (active). The GI50 (IGROV-1) was 105 nM (active), the GI50 (K562) was 65.3 nM (active) and the GI50 (KM-20L2) was 136 nM (active). The GI50 (KM12) was 148 nM (active), the GI50 (LOX IMVI) was 50.2 nM (active) and the GI50 (LXFL 529) was 128 nM (active). The GI50 (M14) was 200 nM (active), the GI50 (MOLT-4) was 15.6 nM (active) and the GI50 (Malme-3M) was 268 nM (active). The GI50 (NCI-H226) was 112 nM (active), the GI50 (NCI-H23) was 85.1 nM (active) and the GI50 (NCI-H460) was 14.9 nM (active). The GI50 (NCI-H522) was 122 nM (active), the GI50 (OVCAR-3) was 215 nM (active) and the GI50 (OVCAR-4) was 115 nM (active). For the same compound, the GI50 (OVCAR-5) was 214 nM (active), the GI50 (OVCAR-8) was 59.4 nM (active) and the GI50 (RPMI-8226) was 145 nM (active). The GI50 (RXF 393) was 111 nM (active), the GI50 (SF-268) was 95.3 nM (active) and the GI50 (SF-295) was 86.7 nM (active). For the same compound, the GI50 (SF-539) was 81.1 nM (active), the GI50 (SK-MEL-28) was 198 nM (active) and the GI50 (SK-MEL-2) was 203 nM (active). The GI50 (SK-MEL-5) was 137 nM (active), the GI50 (SK-OV-3) was 121 nM (active) and the GI50 (SN12C) was 53.1 nM (active). For the same compound, the GI50 (SNB-19) was 94.2 nM (active), the GI50 (SNB-75) was 131 nM (active) and the GI50 (SNB-78) was 182 nM (active). For the same compound, the GI50 (SR) was 24.6 nM (active), the GI50 (SW-620) was 30.6 nM (active) and the GI50 (TK-10) was 207 nM (active). For the same compound, the GI50 (U-251) was 75.5 nM (active), the GI50 (UACC-257) was 177 nM (active) and the GI50 (UACC-62) was 77.6 nM (active). The GI50 (UO-31) was 48.1 nM (active) and the GI50 (XF498) was 56 nM (active).
